Tests used:
[1] = target: hNaV1.7 (Homo sapiens (Human), UniProt Q15858); assay: Ligand Binding Assay (LBA), radioligand displacement on hNaV1.7 HEK293 cell membranes; conditions: 0.5 nM [3H] radioligand, 24 hours at room temperature; read-out: NaV1.7 LBA IC50
Description: Ligand Binding Assay (LBA): hNaV1.7 binding affinities were determined with a filtration binding assay using purified membranes from HEK293 cells stably expressing hNaV1.7. HEK293 cells from a 10-stack cell culture flask (approximately 10^10 cells) were dissociated, frozen, and stored at −80° C. To prepare membranes, the frozen cell pellet was thawed and suspended in 6 ml hypotonic lysis buffer (50 mM HEPES, 0.1% mammalian protease inhibitor cocktail). 1 ml of resuspended cells was added to an additional 6 ml of lysis buffer and homogenized with 30 strokes of a tight pestle in a glass homogenizer. Homogenate was centrifuged at 1000×g for 10 minutes at 4° C. and the resulting supernatant was further centrifuged at 38,500×g for 60 minutes at 4° C. The resulting pellet was resuspended in binding buffer (50 mM HEPES, 130 mM NaCl, 5.4 mM KCl, 0.8 mM MgCl2, 5 mM glucose, pH 7.4) and needle homogenized with a 25 gauge needle. Protein concentration was determined with a BCA protein assay. Purified membranes were aliquoted, flash frozen in an ethyl alcohol dry ice bath, and stored at −80° C. To measure displacement of a radiolabeled ligand, 50 μg of purified hNaV1.7 HEK cell membranes were incubated with test compounds (eight concentrations, in duplicate) and 0.5 nM [3H] labeled radioligand in a 96 well plate for 24 hours at room temperature on a shaker. The total binding reaction volume was 250 μl, consisting of 200 μl purified hNaV1.7 HEK cell membranes, 25 μl test compound, and 25 μl radioligand. Non-specific binding was defined by 20 μM of a reference hNaV1.7 inhibitor. Binding reactions were terminated by filtration through GF/B filters presoaked in 0.5% polyethyleneamine. Filters were washed 5 times with 2 ml each of 4′C wash buffer (50 mM Tris-HCl, pH 7.4 at 4° C.). Bound radioactivity captured on the filters was counted on a liquid scintillation counter. Specific binding, expressed as % inhibition, was fit with Graphpad Prism software to determine binding IC50 values. Results are reported in Table 1 (NaV1.7 LBA IC50 in nM).

[2] = target: NaV1.5 (Homo sapiens (Human), UniProt Q14524); assay: Automated electrophysiology, IonWorks Barracuda population patch clamp, NaV1.5 current (inactivated-state protocol); assay type: cell-based; conditions: HEK 293 cells expressing NaV1.5; read-out: NaV1.5 Barra IC50
Chain of NaV1.5 (Q14524 whole entry): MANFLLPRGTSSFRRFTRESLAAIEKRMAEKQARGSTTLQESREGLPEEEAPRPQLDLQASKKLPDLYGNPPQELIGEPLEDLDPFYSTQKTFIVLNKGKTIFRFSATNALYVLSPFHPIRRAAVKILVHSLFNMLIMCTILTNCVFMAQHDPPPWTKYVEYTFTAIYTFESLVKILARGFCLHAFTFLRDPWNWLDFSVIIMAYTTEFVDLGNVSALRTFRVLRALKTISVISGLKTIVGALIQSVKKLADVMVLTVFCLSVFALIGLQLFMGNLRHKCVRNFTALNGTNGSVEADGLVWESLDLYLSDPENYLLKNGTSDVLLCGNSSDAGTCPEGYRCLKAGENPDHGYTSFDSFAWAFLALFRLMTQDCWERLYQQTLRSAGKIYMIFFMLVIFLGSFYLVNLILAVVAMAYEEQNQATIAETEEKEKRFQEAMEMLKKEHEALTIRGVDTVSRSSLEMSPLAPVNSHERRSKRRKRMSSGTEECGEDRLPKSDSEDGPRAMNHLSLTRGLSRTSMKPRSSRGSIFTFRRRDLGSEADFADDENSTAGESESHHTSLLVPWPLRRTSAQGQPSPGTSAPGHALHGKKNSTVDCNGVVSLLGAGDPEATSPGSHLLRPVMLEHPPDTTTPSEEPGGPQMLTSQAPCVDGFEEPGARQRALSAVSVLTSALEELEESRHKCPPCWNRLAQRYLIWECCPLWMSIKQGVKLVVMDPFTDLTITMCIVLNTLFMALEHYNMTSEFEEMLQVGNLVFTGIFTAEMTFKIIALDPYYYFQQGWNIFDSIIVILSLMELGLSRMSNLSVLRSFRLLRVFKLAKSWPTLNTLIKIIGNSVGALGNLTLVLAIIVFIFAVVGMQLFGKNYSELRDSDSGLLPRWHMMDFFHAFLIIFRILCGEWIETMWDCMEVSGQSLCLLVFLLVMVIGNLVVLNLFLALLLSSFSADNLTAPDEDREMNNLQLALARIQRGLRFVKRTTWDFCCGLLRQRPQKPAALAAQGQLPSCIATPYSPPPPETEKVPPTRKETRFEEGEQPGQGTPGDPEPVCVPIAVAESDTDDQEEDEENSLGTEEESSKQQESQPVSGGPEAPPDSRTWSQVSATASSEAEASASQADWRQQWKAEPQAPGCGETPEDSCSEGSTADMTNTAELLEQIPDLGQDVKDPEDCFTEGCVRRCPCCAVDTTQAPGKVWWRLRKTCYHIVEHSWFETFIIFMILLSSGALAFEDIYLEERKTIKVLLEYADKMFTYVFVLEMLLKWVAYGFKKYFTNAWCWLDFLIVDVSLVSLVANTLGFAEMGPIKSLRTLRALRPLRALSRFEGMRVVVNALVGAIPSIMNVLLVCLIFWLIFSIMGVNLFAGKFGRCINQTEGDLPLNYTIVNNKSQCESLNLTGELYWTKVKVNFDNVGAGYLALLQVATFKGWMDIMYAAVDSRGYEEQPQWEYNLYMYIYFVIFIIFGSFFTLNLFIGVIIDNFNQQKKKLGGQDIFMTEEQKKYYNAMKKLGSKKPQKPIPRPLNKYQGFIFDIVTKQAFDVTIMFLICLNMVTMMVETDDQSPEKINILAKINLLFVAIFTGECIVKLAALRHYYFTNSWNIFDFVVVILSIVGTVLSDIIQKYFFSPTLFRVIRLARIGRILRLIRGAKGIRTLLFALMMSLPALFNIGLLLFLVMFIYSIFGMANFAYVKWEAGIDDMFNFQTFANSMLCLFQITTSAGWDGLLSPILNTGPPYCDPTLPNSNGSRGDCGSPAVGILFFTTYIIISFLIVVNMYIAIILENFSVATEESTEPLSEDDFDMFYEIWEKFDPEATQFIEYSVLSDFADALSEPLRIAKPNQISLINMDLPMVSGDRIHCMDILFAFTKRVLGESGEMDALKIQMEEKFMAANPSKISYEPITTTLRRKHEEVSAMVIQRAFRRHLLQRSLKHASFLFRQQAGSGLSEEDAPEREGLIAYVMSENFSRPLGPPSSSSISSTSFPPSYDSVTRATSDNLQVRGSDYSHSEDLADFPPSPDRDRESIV
Description: (§1) Automated Electrophysiology: Ion Works Barracuda population patch clamp (PPC). PPC measurements were performed using an IonWorks Barracuda instrument (Molecular Devices Corporation, Union City, Calif.) using either PatchPlate™ PPC substrates (Molecular Devices Corporation) with 64 apertures per well. The ability to average currents from 64 recordings from each well greatly improves data consistency and recording success rates in the measurement of NaV1.7 mediated ionic currents. Calculated leak current was digitally subtracted from the total cell NaV1.7 current for each sample point acquired.
(§2) NaV1.7 currents were elicited by a voltage clamp protocol designed to bias the NaV1.7 channels to their inactivated state as follows. From holding potential of −60 mV cells were briefly hyperpolarized to −100 mV for 1.25 sec, then stepped to −20 mV for 20 sec to inactivate the channels. This was followed by a relatively brief hyperpolarization to −100 mv for 300 ms, then a 20 msec test pulse to −20 mV to elicit the NaV1.7 current used to measure the pharmacology of all test compounds. Compounds were incubated for 600 sec between the pre- and post-compound reads. The external recording solution used was (in mM) 137 NaCl, 4 KCl, 1 MgCl2, 1.8 CaCl2, 10 Hepes, 10 glucose, pH to 7.4 with NaOH, and the internal solution used was (in mM) 100 K-gluconate, 40 KCl, 3.2 zMgCl2, 5 EGTA, 10 HEPES pH to 7.2 with KOH. The same solutions were used to record NaV1.5 currents, with the following voltage clamp protocol. NaV1.5 currents were elicited by a voltage clamp protocol designed to bias the NaV1.5 channels to their inactivated state as follows. From holding potential of −40 mV cells were briefly hyperpolarized to −100 mV for 300 ms, then stepped to −10 mV for 20 sec to inactivate the channels. This was followed by a relatively brief hyperpolarization to −100 mv for 30 ms, then a 20 msec test pulse to −10 mV to elicit the NaV1.5 current used to measure the pharmacology of all test compounds.
(§3) HEK 293 cells expressing NaV1.7 and NaV1.5 channels, were used (Essen Biosciences, Ann Arbor, Mich.). Cells were cultured in T-175 flasks and passaged every 2 to 3 days at 1:3 to 1:6 seeding density dilutions. Cells were grown to 70% to 90% confluence in a flask and removed from the incubator (37° C., 5% CO2) 1 to 3 days after plating. Growth medium was aspirated from the culture flasks. Cells were gently rinsed with 10 ml of PBS (Catalog number: 14190144, Gibco) to remove residual media. Next a total of 2 mL TrypLE (Gibco) solution was added, and the flasks containing cells were sat for 3 min at RT, after which, the cells became visibly rounded and were easily dislodged from the bottom of the flask with a few brief taps on a solid surface. A total of 8 mL of media was added to the flask to inactivate the TrypLE, and the mixture was centrifuged at 910 rpm for 4 min. The cell supernatant was decanted, and the cell pellets were resuspended in 5-6 mL of external solution followed by gentle triturations using a 10 ml pipette, and transferred to a 15 ml conical tube and immediately brought to the IW Barracuda instrument.
(§4) Peak membrane currents were analyzed with IW Barracuda software and exported to Excel for further analysis. Concentration response curve fitting was performed with BMS in-house software. IC50 values were obtained by fits of the Hill equation to the average percent inhibition data plotted versus compound concentration. […] Results are reported in Table 1 (NaV1.7 Barra IC50 in nM and NaV1.5 Barra IC50 in nM).

[3] = target: NaV1.7 (Homo sapiens (Human), UniProt Q15858); assay: Automated electrophysiology, IonWorks Barracuda population patch clamp, NaV1.7 current (inactivated-state protocol); assay type: cell-based; conditions: HEK 293 cells expressing NaV1.7; 600 sec compound incubation; read-out: NaV1.7 Barra IC50
Chain of NaV1.7 (Q15858 whole entry): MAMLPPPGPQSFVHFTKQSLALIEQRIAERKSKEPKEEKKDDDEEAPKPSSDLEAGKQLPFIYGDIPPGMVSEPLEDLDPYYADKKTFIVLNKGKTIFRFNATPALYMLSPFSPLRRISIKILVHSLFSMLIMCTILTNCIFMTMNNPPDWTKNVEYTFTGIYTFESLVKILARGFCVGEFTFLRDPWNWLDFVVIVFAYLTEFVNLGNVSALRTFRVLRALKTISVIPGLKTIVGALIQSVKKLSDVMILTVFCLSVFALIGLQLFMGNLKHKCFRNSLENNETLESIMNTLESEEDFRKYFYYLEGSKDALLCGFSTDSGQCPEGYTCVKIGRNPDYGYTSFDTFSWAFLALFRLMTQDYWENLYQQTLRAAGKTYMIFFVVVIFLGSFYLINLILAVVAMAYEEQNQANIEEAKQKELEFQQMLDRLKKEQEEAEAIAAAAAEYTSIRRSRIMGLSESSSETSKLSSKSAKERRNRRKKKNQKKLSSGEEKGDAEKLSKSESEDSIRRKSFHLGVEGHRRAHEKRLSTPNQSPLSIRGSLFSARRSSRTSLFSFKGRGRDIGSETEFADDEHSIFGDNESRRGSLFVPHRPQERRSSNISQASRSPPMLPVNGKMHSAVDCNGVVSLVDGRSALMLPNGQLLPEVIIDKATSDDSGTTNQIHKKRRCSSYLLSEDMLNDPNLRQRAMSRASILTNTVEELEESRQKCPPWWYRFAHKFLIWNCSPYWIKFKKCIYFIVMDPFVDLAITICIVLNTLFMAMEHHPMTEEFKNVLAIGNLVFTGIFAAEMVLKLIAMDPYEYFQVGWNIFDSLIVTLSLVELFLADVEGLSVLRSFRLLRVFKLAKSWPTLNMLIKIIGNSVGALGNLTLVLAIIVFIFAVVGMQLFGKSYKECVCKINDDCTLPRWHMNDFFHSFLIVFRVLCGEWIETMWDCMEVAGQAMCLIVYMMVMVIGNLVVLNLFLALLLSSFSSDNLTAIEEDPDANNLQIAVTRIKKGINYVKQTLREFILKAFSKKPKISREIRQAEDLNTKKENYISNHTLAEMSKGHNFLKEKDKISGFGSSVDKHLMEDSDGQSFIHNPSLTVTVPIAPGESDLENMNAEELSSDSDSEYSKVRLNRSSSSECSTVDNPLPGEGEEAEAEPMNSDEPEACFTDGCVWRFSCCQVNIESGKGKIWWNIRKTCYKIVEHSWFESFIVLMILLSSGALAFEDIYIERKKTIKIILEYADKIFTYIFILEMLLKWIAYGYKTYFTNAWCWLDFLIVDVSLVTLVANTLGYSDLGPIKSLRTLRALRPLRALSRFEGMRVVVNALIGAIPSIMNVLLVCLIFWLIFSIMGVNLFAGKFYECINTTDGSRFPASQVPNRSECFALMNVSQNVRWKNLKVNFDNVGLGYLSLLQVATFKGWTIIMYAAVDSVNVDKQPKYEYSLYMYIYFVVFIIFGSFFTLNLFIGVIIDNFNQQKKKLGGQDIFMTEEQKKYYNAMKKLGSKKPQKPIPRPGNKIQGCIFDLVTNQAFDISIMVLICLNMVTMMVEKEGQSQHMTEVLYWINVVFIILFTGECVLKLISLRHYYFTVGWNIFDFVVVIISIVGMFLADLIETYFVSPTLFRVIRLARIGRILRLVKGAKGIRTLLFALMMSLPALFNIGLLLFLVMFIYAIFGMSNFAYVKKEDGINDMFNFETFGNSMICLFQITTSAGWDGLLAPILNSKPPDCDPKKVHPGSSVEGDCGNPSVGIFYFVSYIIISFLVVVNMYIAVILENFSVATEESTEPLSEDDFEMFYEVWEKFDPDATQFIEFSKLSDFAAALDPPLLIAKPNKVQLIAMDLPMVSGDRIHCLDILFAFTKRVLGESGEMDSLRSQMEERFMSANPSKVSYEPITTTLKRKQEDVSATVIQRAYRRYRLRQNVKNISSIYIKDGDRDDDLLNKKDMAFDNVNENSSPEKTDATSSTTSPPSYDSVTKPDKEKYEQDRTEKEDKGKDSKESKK
Description: as §1, §2, §3, §4

Chain of hNaV1.7 (Q15858 whole entry): as above

SMILES: CC(C)COc1ncc(-c2cn(C)c3cc(C(=O)NS(C)(=O)=O)c(F)cc23)cc1Cl [Example 42, 3-(5-Chloro-6-isobutoxypyridin-3-yl)-5-fluoro-1-methyl-N-(methylsulfonyl)-1H-indole-6-carboxamide]
- IC50 [1]: 11 nM
- IC50 [2]: 7180 nM
- IC50 [3]: 524 nM

SMILES: CC(C)COc1ncc(-c2cn(C)c3cc(C(=O)NS(=O)(=O)C4CC4)c(F)cc23)cc1Cl [Example 43, 3-(5-Chloro-6-isobutoxypyridin-3-yl)-N-(cyclopropylsulfonyl)-5-fluoro-1-methyl-1H-indole-6-carboxamide]
- IC50 [1]: 3.4 nM
- IC50 [2]: 4850 nM
- IC50 [3]: 310 nM

SMILES: CC(C)COc1ccc(-c2cn(C)c3cc(C(=O)NS(C)(=O)=O)c(F)cc23)cn1 [Example 44, 5-Fluoro-3-(6-isobutoxypyridin-3-yl)-1-methyl-N-(methylsulfonyl)-1H-indole-6-carboxamide]
- IC50 [1]: 86 nM
- IC50 [2]: 18700 nM
- IC50 [3]: 104 nM

SMILES: CC(C)COc1ccc(-c2cn(C)c3cc(C(=O)NS(=O)(=O)C4CC4)c(F)cc23)cn1 [Example 45, N-(Cyclopropylsulfonyl)-5-fluoro-3-(6-isobutoxypyridin-3-yl)-1-methyl-1H-indole-6-carboxamide]
- IC50 [1]: 26 nM
- IC50 [2]: 3700 nM
- IC50 [3]: 59 nM

SMILES: Cn1cc(-c2ccc(C(F)(F)F)cc2)c2cc(F)c(C(=O)NS(C)(=O)=O)cc21 [Example 46, 5-Fluoro-1-methyl-N-(methylsulfonyl)-3-(4-(trifluoromethyl)phenyl)-1H-indole-6-carboxamide]
- IC50 [1]: 84 nM
- IC50 [2]: > 30000 nM
- IC50 [3]: 49 nM

SMILES: Cn1cc(-c2ccc(C(F)(F)F)cc2)c2cc(F)c(C(=O)NS(=O)(=O)C3CC3)cc21 [Example 47]
- IC50 [1]: 39 nM
- IC50 [2]: 3820 nM
- IC50 [3]: 16 nM

SMILES: Cn1cc(-c2ccc(C(F)F)cc2)c2cc(F)c(C(=O)NS(C)(=O)=O)cc21 [Example 48, 3-(4-(Difluoromethyl)phenyl)-5-fluoro-1-methyl-N-(methylsulfonyl)-1H-indole-6-carboxamide]
- IC50 [1]: 956 nM
- IC50 [2]: > 30000 nM
- IC50 [3]: 91 nM

SMILES: Cn1cc(-c2ccc(C(F)F)cc2)c2cc(F)c(C(=O)NS(=O)(=O)C3CC3)cc21 [Example 49, N-(Cyclopropylsulfonyl)-3-(4-(difluoromethyl)phenyl)-5-fluoro-1-methyl-1H-indole-6-carboxamide]
- IC50 [1]: 146 nM
- IC50 [2]: 9670 nM
- IC50 [3]: 38 nM

Source: patent US10550080B2 (BRISTOL-MYERS SQUIBB COMPANY, priority 2016, dated 2020)
